In ChEMBL document CHEMBL5096178, “Synthesis and Biological Evaluation of Natural-Product-Inspired, Aminoalkyl-Substituted 1-Benzopyrans as Novel Antiplasmodial Agents” (J Med Chem, 2021):
In brackets after ≈: the same amount, converted by molar mass.

Assays:
Plasmodium falciparum [1] = test: Antimalarial activity against chloroquine-sensitive Plasmodium falciparum D6 assessed as parasite growth inhibition by [3H]hypoxanthine growth inhibition assay; format: functional, organism-based
[2] = Drug metabolism in mouse liver microsomes assessed as 2,2-dimethyl-6-((3-phenylpropylamino)methyl)chroman-7-ol metabolite formation incubated for 90 mins in presence of NADPH/UDPGA by LC-MS analysis; format: ADME, Microsome; details: 1.5 h
[3] = Drug metabolism in NMRI mouse infected with GFP-transfected Plasmodium berghei ANKA assessed as 2,2-dimethyl-6-((3-phenylpropylamino)methyl)chroman-7-ol metabolite formation administered orally for 4 consecutive days measured after 1 hr by LC-MS analysis; format: ADME; details: in vivo, po, 97 h
[4] = Selectivity index, ratio of IC50 for rat L6 cells to IC50 for Trypanosoma brucei rhodesiense STIB 900 bloodstream trypomastigote; format: toxicity; details: read-out: Ratio IC50
[5] = Drug concentration in plasma of NMRI mouse infected with GFP-transfected Plasmodium berghei ANKA administered intraperitoneally for 4 consecutive days measured after 1 hr by LC-MS analysis; format: ADME; details: ip, 97 h
[6] = Selectivity index, ratio of IC50 for rat L6 cells to IC50 for Leishmania donovani MHOM/ET/67/L82 axenic amastigote; format: toxicity; details: read-out: Ratio IC50
Plasmodium berghei [7] = test: Antiplasmodial activity against GFP-transfected Plasmodium berghei ANKA infected in NMRI mouse assessed as parasitemia reduction at 30 mg/kg, ip administered for 4 consecutive days measured after 24 hrs by FACS analysis relative to control; format: functional; set-up: scale not given: the % may be the effect or the level left
[8] = Drug metabolism in NMRI mouse infected with GFP-transfected Plasmodium berghei ANKA assessed as (2R,3R,4S,5S,6R)-2-(2,2-dimethyl-6-((3-phenylpropylamino)methyl)chroman-7-ylperoxy)-6-(hydroxymethyl)tetrahydro-2H-pyran-3,4,5-triol metabolite formation administered intraperitoneally for 4 consecutive days measured after 1 hr by LC-MS analysis; format: ADME; details: in vivo, ip, 97 h
[9] = Displacement of [3H]-(+)-pentazocine from Sigma1 receptor derived from pig brain assessed as inhibition constant measured after 120 mins by scintillation counter analysis; format: tissue-based, Sus scrofa
Plasmodium falciparum [10] = test: Inhibition of Plasmodium falciparum DHODH assessed as residual activity using DCIP as substrate at 50 uM relative to control
Trypanosoma cruzi = test: Antiprotozoal activity against Trypanosoma cruzi Tulahuen C4 intracellular amastigote infected in rat L6 cells assessed as parasite growth inhibition incubated for 96 hrs in presence of CPRG/Nonidet by photometry; format: functional, organism-based; details: Tulahuen C4, L6, 96 h
[11] = Selectivity index, ratio of IC50 for rat L6 cells to IC50 for Trypanosoma cruzi Tulahuen C4 intracellular amastigote infected in rat L6 cells; format: toxicity, cell-based; details: read-out: Ratio IC50
Plasmodium falciparum [12] = test: Inhibition of Plasmodium falciparum DHODH using DCIP as substrate at 50 uM relative to control
[13] = tested on: Trypanosoma brucei rhodesiense; test: Antiprotozoal activity against Trypanosoma brucei rhodesiense STIB 900 bloodstream trypomastigote assessed as parasite growth inhibition incubated for 70 hrs by resazurin dye based assay; format: functional, organism-based; details: STIB 900, 70 h
[14] = Drug metabolism in NMRI mouse infected with GFP-transfected Plasmodium berghei ANKA assessed as 2,2-dimethyl-6-((3-phenylpropylamino)methyl)chroman-7-ol metabolite formation administered intraperitoneally for 4 consecutive days measured after 1 hr by LC-MS analysis; format: ADME; details: in vivo, ip, 97 h
Plasmodium falciparum [15] = test: Inhibition of Plasmodium falciparum DHODH assessed as residual activity using DCIP as substrate at 10 uM relative to control
[16] = Cytotoxicity against rat L6 cells assessed as cell growth inhibition incubated for 70 hrs by Alamar Blue staining based […]; format: toxicity
[17] = Drug metabolism in mouse liver microsomes assessed as (2R,3R,4S,5S,6R)-2-(2,2-dimethyl-6-((3-phenylpropylamino)methyl)chroman-7-ylperoxy)-6-(hydroxymethyl)tetrahydro-2H-pyran-3,4,5-triol metabolite formation incubated for 90 mins in presence of NADPH/UDPGA by LC-MS analysis; format: ADME, Microsome; details: 1.5 h
[18] = Drug metabolism in NMRI mouse infected with GFP-transfected Plasmodium berghei ANKA assessed as glucuronic acid conjugated metabolite formation administered intraperitoneally for 4 consecutive days measured after 1 hr by LC-MS analysis; format: ADME; details: in vivo, ip, 97 h
[19] = Drug concentration in plasma of NMRI mouse infected with GFP-transfected Plasmodium berghei ANKA administered orally for 4 consecutive days measured after 1 hr by LC-MS analysis; format: ADME; details: po, 97 h
Plasmodium berghei [20] = test: Antiplasmodial activity against GFP-transfected Plasmodium berghei ANKA infected in NMRI mouse assessed as parasitemia reduction at 60 mg/kg, po administered for 4 consecutive days measured after 24 hrs by FACS analysis relative to control; format: functional; set-up: scale not given: the % may be the effect or the level left
[21] = Drug metabolism in NMRI mouse infected with GFP-transfected Plasmodium berghei ANKA assessed as (2R,3R,4S,5S,6R)-2-(2,2-dimethyl-6-((3-phenylpropylamino)methyl)chroman-7-ylperoxy)-6-(hydroxymethyl)tetrahydro-2H-pyran-3,4,5-triol metabolite formation administered orally for 4 consecutive days measured after 1 hr by LC-MS analysis; format: ADME; details: in vivo, po, 97 h
Plasmodium falciparum [22] = test: Inhibition of Plasmodium falciparum DHODH using DCIP as substrate at 10 uM relative to control
Plasmodium falciparum [23] = test: Antiprotozoal activity against erythrocytic stage Plasmodium falciparum NF54 assessed as parasite growth inhibition incubated for 48 hrs by [3H]hypoxanthine incorporation assay; format: functional, organism-based
[24] = Drug metabolism in mouse liver microsomes assessed as glucuronic acid conjugated metabolite formation incubated for 90 mins in presence of NADPH/UDPGA by LC-MS analysis; format: ADME, Microsome; details: 1.5 h
[25] = Drug metabolism in NMRI mouse infected with GFP-transfected Plasmodium berghei ANKA assessed as glucuronic acid conjugated metabolite formation administered orally for 4 consecutive days measured after 1 hr by LC-MS analysis; format: ADME; details: in vivo, po, 97 h
[26] = Selectivity index, ratio of IC50 for rat L6 cells to IC50 for erythrocytic stage Plasmodium falciparum NF54; format: toxicity; details: read-out: Ratio IC50
Leishmania donovani = test: Antiprotozoal activity against Leishmania donovani MHOM/ET/67/L82 axenic amastigote assessed as parasite growth inhibition incubated for resazurin dye based fluorometry; format: functional, organism-based
Plasmodium falciparum [27] = test: Antimalarial activity against drug-sensitive Plasmodium falciparum 3D7 assessed as parasite growth inhibition incubated for 48 hrs by [3H]hypoxanthine incorporation assay; format: functional, organism-based

## CCCCNCc1cc(C(C)(C)C)cc(-c2cnc(C(F)(F)F)c(F)c2)c1O
Plasmodium falciparum [1]
  IC50: 9 nM

## CC1(C)CCc2cc(CNCCCc3ccccc3)c(O)cc2O1
[2]
  Drug metabolism: Metabolite_Detected
[3]
  Drug metabolism: Metabolite_Detected
[4]
  selectivity ratio: 14
[5]
  Drug uptake: Active
[6]
  selectivity ratio: 0.05
Plasmodium berghei [7]
  Activity: 66%
[8]
  Drug metabolism: Metabolite_Detected
[9]
  Ki: 74 nM
Plasmodium falciparum [10]
  Activity: 90%
Trypanosoma cruzi
  IC50: 15000 nM
[11]
  selectivity ratio: 0.4
Plasmodium falciparum [12]
  inhibition: 1%
[13]
  IC50: 410 nM
[14]
  Drug metabolism: Metabolite_Detected
Plasmodium falciparum [15]
  Activity: 106%
[16]
  IC50 at 70 h: 6500 nM
[17]
  Drug metabolism: Metabolite_Detected
[18]
  Drug metabolism: Metabolite_Detected
[19]
  Drug uptake: Active
Plasmodium berghei [20]
  Activity: 74%
[21]
  Drug metabolism: Metabolite_Detected
Plasmodium falciparum [22]
  inhibition: 3%
Plasmodium falciparum [23]
  IC50: 38 nM
[24]
  Drug metabolism: Metabolite_Detected
[25]
  Drug metabolism: Metabolite_Detected
[26]
  selectivity ratio: 171
Leishmania donovani
  IC50: 134000 nM

## CC(C)(C)c1cc(O)c(CN)c(C(C)(C)C)c1
Plasmodium falciparum [27]
  IC50: 30 µg/mL (≈ 127 µM)
